{"source": "paper PMC11859928", "about": "“Design, Synthesis, and Antiproliferative Activity of Novel Indole/1,2,4-Triazole Hybrids as Tubulin Polymerization Inhibitors” (Pharmaceuticals, 2025)", "key": {"[1]": {"tested_on": "COLO205", "test": "NCI five-dose assay", "assay_type": "cell-based, human", "conditions": "COLO205, Colon cancer"}, "[2]": {"tested_on": "OVCAR-5", "test": "NCI five-dose assay", "assay_type": "cell-based, human", "conditions": "OVCAR-5, Ovarian cancer"}, "[3]": {"tested_on": "A549/ATCC", "test": "NCI five-dose assay", "assay_type": "cell-based, human", "conditions": "Non-small cell lung cancer"}, "[4]": {"tested_on": "IGROV1", "test": "NCI five-dose assay", "assay_type": "cell-based, human", "conditions": "IGROV1, Ovarian cancer"}, "[5]": {"tested_on": "U251", "test": "NCI five-dose assay", "assay_type": "cell-based, human", "conditions": "Homo sapiens, U-251, U251, CNS cancer"}, "[6]": {"tested_on": "SK-MEL-5", "test": "NCI five-dose assay", "assay_type": "cell-based, human", "conditions": "SK-MEL-5, Melanoma"}, "[7]": {"tested_on": "UACC-257", "test": "NCI five-dose assay", "assay_type": "cell-based, human", "conditions": "UACC-257, Melanoma"}, "[8]": {"tested_on": "NCI-H23", "test": "NCI five-dose assay", "assay_type": "cell-based, human", "conditions": "NCI-H23, Non-small cell lung cancer"}, "[9]": {"tested_on": "HCT-116", "test": "NCI five-dose assay", "assay_type": "cell-based, human", "conditions": "HCT-116, Colon cancer"}, "[10]": {"tested_on": "MDA-MB-468", "test": "NCI five-dose assay", "assay_type": "cell-based, human", "conditions": "MDA-MB-468, Breast cancer"}, "[11]": {"tested_on": "Breast cancer subpanel", "test": "NCI five-dose assay, subpanel mean", "assay_type": "cell-based, human"}, "[12]": {"tested_on": "HS 578T", "test": "NCI five-dose assay", "assay_type": "cell-based, human", "conditions": "Breast cancer"}, "[13]": {"tested_on": "MCF7", "test": "NCI five-dose assay", "assay_type": "cell-based, human", "conditions": "MCF7, Breast cancer"}, "[14]": {"tested_on": "HOP-92", "test": "NCI five-dose assay", "assay_type": "cell-based, human", "conditions": "HOP-92, Non-small cell lung cancer"}, "[15]": {"tested_on": "BT-549", "test": "NCI five-dose assay", "assay_type": "cell-based, human", "conditions": "BT-549, Breast cancer"}, "[16]": {"tested_on": "CNS cancer subpanel", "test": "NCI five-dose assay, subpanel mean", "assay_type": "cell-based, human", "conditions": "Homo sapiens; average sensitivity of all cell lines of the CNS cancer subpanel; read-out: GI50 Subpanel MID b"}, "[17]": {"tested_on": "NCI-H226", "test": "NCI five-dose assay", "assay_type": "cell-based, human", "conditions": "NCI-H226, Non-small cell lung cancer"}, "[18]": {"tested_on": "Renal cancer subpanel", "test": "NCI five-dose assay, subpanel mean", "assay_type": "cell-based, human"}, "[19]": {"tested_on": "K-562", "test": "NCI five-dose assay", "assay_type": "cell-based, human", "conditions": "Homo sapiens, K562, K-562, Leukemia"}, "[20]": {"tested_on": "HCT-15", "test": "NCI five-dose assay", "assay_type": "cell-based, human", "conditions": "HCT-15, Colon cancer"}, "[21]": {"tested_on": "panel of 60 human tumor cell lines", "test": "NCI five-dose assay, full panel", "assay_type": "cell-based"}, "[22]": {"tested_on": "UACC-62", "test": "NCI five-dose assay", "assay_type": "cell-based, human", "conditions": "UACC-62, Melanoma"}, "[23]": {"tested_on": "Melanoma subpanel", "test": "NCI five-dose assay, subpanel mean", "assay_type": "cell-based, human"}, "[24]": {"tested_on": "RPMI-8226", "test": "NCI five-dose assay", "assay_type": "cell-based, human", "conditions": "Homo sapiens, RPMI-8226, Leukemia"}, "[25]": {"tested_on": "SK-MEL-28", "test": "NCI five-dose assay", "assay_type": "cell-based, human", "conditions": "SK-MEL-28, Melanoma"}, "[26]": {"tested_on": "Leukemia subpanel", "test": "NCI five-dose assay, subpanel mean", "assay_type": "cell-based, human"}, "[27]": {"tested_on": "T-47D", "test": "NCI five-dose assay", "assay_type": "cell-based, human", "conditions": "Breast cancer"}, "[28]": {"conditions": "Homo sapiens, read-out: GI50 Conc. per Cell Lines"}, "[29]": {"conditions": "Homo sapiens, 48 h, read-out: LC50 (the source's name)"}, "[30]": {"conditions": "48 h, read-out: LC50 (the source's name)"}, "[31]": {"conditions": "read-out: GI50 Conc. per Cell Lines"}}, "note": "Like-named read-outs stand apart in the source and are kept apart here."}
{"smiles": "O/N=C(\\CSc1nnc(-c2c[nH]c3ccccc23)n1-c1ccccc1)c1ccc(Br)cc1", "note": "[Compound 7i, (Z)-2-((5-(1H-Indol-3-yl)-4-phenyl-4H-1,2,4-triazol-3-yl)thio)-1-(4-bromophenyl) Ethanone Oxime]", "values": [{"measurement": "TGI Conc. per Cell Lines", "setting": "[1]", "value": 16.60, "unit": "µM"}, {"measurement": "CC50", "setting": "[1]; Homo sapiens, COLO 205, 48 h, read-out: LC50 (the source's name)", "value": "> 100", "unit": "µM"}, {"measurement": "GI50", "setting": "[1]; Homo sapiens, COLO 205, read-out: GI50 Conc. per Cell Lines", "value": 3.8, "unit": "µM"}, {"measurement": "LC50", "setting": "[2]; Homo sapiens, 48 h", "value": 1590, "unit": "nM"}, {"measurement": "GI50", "setting": "[2]; [28]", "value": 2180, "unit": "nM"}, {"measurement": "TGI Conc. per Cell Lines", "setting": "[2]", "value": 5.21, "unit": "µM"}, {"measurement": "CC50", "setting": "[3]; [29]", "value": 31, "unit": "µM"}, {"measurement": "GI50", "setting": "[3]; [28]", "value": 2490, "unit": "nM"}, {"measurement": "TGI Conc. per Cell Lines", "setting": "[3]", "value": 6.66, "unit": "µM"}, {"measurement": "CC50", "setting": "[4]; Homo sapiens, IGROV-1, 48 h, read-out: LC50 (the source's name)", "value": 38.3, "unit": "µM"}, {"measurement": "GI50", "setting": "[4]; Homo sapiens, IGROV-1, read-out: GI50 Conc. per Cell Lines", "value": 3.41, "unit": "µM"}, {"measurement": "TGI Conc. per Cell Lines", "setting": "[4]", "value": 11.70, "unit": "µM"}, {"measurement": "CC50", "setting": "[5]; [30]", "value": 51.2, "unit": "µM"}, {"measurement": "GI50", "setting": "[5]; [31]", "value": 4.38, "unit": "µM"}, {"measurement": "CC50", "setting": "[6]; [29]", "value": 35.8, "unit": "µM"}, {"measurement": "GI50", "setting": "[6]; [28]", "value": 3.55, "unit": "µM"}, {"measurement": "TGI Conc. per Cell Lines", "setting": "[6]", "value": 12.80, "unit": "µM"}, {"measurement": "CC50", "setting": "[7]; [29]", "value": 72.6, "unit": "µM"}, {"measurement": "GI50", "setting": "[7]; [28]", "value": 3.87, "unit": "µM"}, {"measurement": "TGI Conc. per Cell Lines", "setting": "[7]", "value": 17.50, "unit": "µM"}, {"measurement": "CC50", "setting": "[8]; [29]", "value": 84.3, "unit": "µM"}, {"measurement": "GI50", "setting": "[8]; [28]", "value": 4.31, "unit": "µM"}, {"measurement": "TGI Conc. per Cell Lines", "setting": "[8]", "value": 19.60, "unit": "µM"}, {"measurement": "TGI Conc. per Cell Lines", "setting": "[9]", "value": 17.40, "unit": "µM"}, {"measurement": "CC50", "setting": "[9]; [29]", "value": "> 100", "unit": "µM"}, {"measurement": "GI50", "setting": "[9]; [28]", "value": 3.45, "unit": "µM"}, {"measurement": "LC50", "setting": "[10]; Homo sapiens, 48 h", "value": 6.32, "unit": "µM"}, {"measurement": "GI50", "setting": "[10]; [28]", "value": 1720, "unit": "nM"}, {"measurement": "TGI Conc. per Cell Lines", "setting": "[10]", "value": 3.30, "unit": "µM"}, {"measurement": "GI50 Selectivity Ratio (MID a/MID b)", "setting": "[11]; Breast cancer subpanel", "value": 1.02}, {"measurement": "GI50", "setting": "[11]; Homo sapiens, average sensitivity of all cell lines of the Breast cancer subpanel, read-out: GI50 Subpanel MID b", "value": 2730, "unit": "nM"}, {"measurement": "TGI Conc. per Cell Lines", "setting": "[12]", "value": 11.90, "unit": "µM"}, {"measurement": "LC50", "setting": "[12]; Homo sapiens, 48 h", "value": "> 100", "unit": "µM"}, {"measurement": "GI50", "setting": "[12]; [28]", "value": 2840, "unit": "nM"}, {"measurement": "LC50", "setting": "[13]; Homo sapiens, 48 h", "value": 63.6, "unit": "µM"}, {"measurement": "GI50", "setting": "[13]; [28]", "value": 3.49, "unit": "µM"}, {"measurement": "TGI Conc. per Cell Lines", "setting": "[13]", "value": 15.3, "unit": "µM"}, {"measurement": "TGI Conc. per Cell Lines", "setting": "[14]", "value": 24.10, "unit": "µM"}, {"measurement": "CC50", "setting": "[14]; [29]", "value": "> 100", "unit": "µM"}, {"measurement": "GI50", "setting": "[14]; [28]", "value": 3.66, "unit": "µM"}, {"measurement": "TGI Conc. per Cell Lines", "setting": "[15]", "value": 7.25, "unit": "µM"}, {"measurement": "CC50", "setting": "[15]; [29]", "value": 34.2, "unit": "µM"}, {"measurement": "GI50", "setting": "[15]; [28]", "value": 3.16, "unit": "µM"}, {"measurement": "GI50", "setting": "[16]", "value": 3.15, "unit": "µM"}, {"measurement": "CC50", "setting": "[17]; [29]", "value": 51.4, "unit": "µM"}, {"measurement": "GI50", "setting": "[17]; [28]", "value": 3.33, "unit": "µM"}, {"measurement": "TGI Conc. per Cell Lines", "setting": "[17]", "value": 14.90, "unit": "µM"}, {"measurement": "GI50", "setting": "[18]; Homo sapiens, average sensitivity of all cell lines of the Renal cancer subpanel, read-out: GI50 Subpanel MID b", "value": 2870, "unit": "nM"}, {"measurement": "GI50 Selectivity Ratio (MID a/MID b)", "setting": "[18]; Renal cancer subpanel", "value": 0.98}, {"measurement": "CC50", "setting": "[19]; [30]", "value": "> 100", "unit": "µM"}, {"measurement": "GI50", "setting": "[19]; [31]", "value": 2220, "unit": "nM"}, {"measurement": "TGI Conc. per Cell Lines", "setting": "[20]", "value": 4.72, "unit": "µM"}, {"measurement": "CC50", "setting": "[20]; [29]", "value": 12.1, "unit": "µM"}, {"measurement": "GI50", "setting": "[20]; [28]", "value": 2110, "unit": "nM"}, {"measurement": "GI50", "setting": "[21]; average sensitivity of all cell lines, read-out: GI50 MID a", "value": 2800, "unit": "nM"}, {"measurement": "GI50", "setting": "[21]; most of the tested cell lines across nine subpanels, read-out: GI50 values, range across nine subpanels", "value": "2100 to 3230", "unit": "nM"}, {"measurement": "CC50", "setting": "[22]; [29]", "value": 7.93, "unit": "µM"}, {"measurement": "GI50", "setting": "[22]; [28]", "value": 1770, "unit": "nM"}, {"measurement": "TGI Conc. per Cell Lines", "setting": "[22]", "value": 3.74, "unit": "µM"}, {"measurement": "GI50", "setting": "[23]; Homo sapiens, average sensitivity of all cell lines of the Melanoma subpanel, read-out: GI50 Subpanel MID b", "value": 2890, "unit": "nM"}, {"measurement": "GI50 Selectivity Ratio (MID a/MID b)", "setting": "[23]; Melanoma subpanel", "value": 0.97}, {"measurement": "CC50", "setting": "[24]; [30]", "value": "> 100", "unit": "µM"}, {"measurement": "GI50", "setting": "[24]; [31]", "value": 2450, "unit": "nM"}, {"measurement": "CC50", "setting": "[25]; [29]", "value": 44.8, "unit": "µM"}, {"measurement": "GI50", "setting": "[25]; [28]", "value": 3.4, "unit": "µM"}, {"measurement": "TGI Conc. per Cell Lines", "setting": "[25]", "value": 12.50, "unit": "µM"}, {"measurement": "GI50", "setting": "[26]; Homo sapiens, average sensitivity of all cell lines of the Leukemia subpanel, read-out: GI50 Subpanel MID b", "value": 2290, "unit": "nM"}, {"measurement": "GI50 Selectivity Ratio (MID a/MID b)", "setting": "[26]; Leukemia subpanel", "value": 1.22}, {"measurement": "TGI Conc. per Cell Lines", "setting": "[27]", "value": 17.20, "unit": "µM"}, {"measurement": "LC50 (concentration killing 50% of cells)", "setting": "[27]; Homo sapiens, T47D, 48 h", "value": "> 100", "unit": "µM"}, {"measurement": "GI50", "setting": "[27]; Homo sapiens, T47D, read-out: GI50 Conc. per Cell Lines", "value": 3.51, "unit": "µM"}]}
